Reference: patent publication US20190375791A1, “NEW D-CONFIGURED CATESLYTIN PEPTIDE” (priority 2016, published 2019)
Values after ≈ are worked out from the molar mass of the structure shown. Where a SMILES comes first, the peptide text is derived from it. [ ]: non-standard residue; d: D form.

Columns and labels:
Parvimonas micra = assay: microbe, parasite or virus in culture
Description: (§1) E. coli K-12 mutant E2146 was kindly provided by the Institut Pasteur of Paris. […] It is resistant to specific antibiotics, i.e. ampicillin, chloramphenicol, and kanamycin.
(§2) MIC was determined by broth microdilution. […] Experiments were performed with biological replicates.
(§3) To this aim, they determined the Fractional Inhibitory Concentration Index (FICI) of the combination between D-CTL and each antibiotic of reference.

E. coli (ATCC 25922) = assay: Resistance acquisition assay; type: cell-based, Escherichia coli; settings: E. coli wild type cultured at sub-MIC (½ MIC) concentrations, day 28
Description: FIG. 1: Resistance acquisition assay of E. coli in the presence of D-CTL compared to ampicillin and cefotaxim. Bacteria were cultured in the presence of ½ MIC of the antibacterial agent for […]. The fold change in MIC was evaluated at the indicated days. The graph is representative of two experiments done independently.
E. coli (ATCC® 25922™ ) strain was sequentially passaged every day in the presence of the different antibacterial compounds: D-CTL, ampicillin or cefotaxime at ½ MIC during 28 days. The changes in the MICs were determined as previously described by broth microdilution at the indicated times.

[1] = system: Escherichia coli Amp^R Kan^RChlo^R; settings: Escherichia coli Amp^R Kan^R Chlo^R (multi-resistant), 24 hours incubation
Description: as §1, §2, §3

Escherichia coli = assay: microbe, parasite or virus in culture; settings: 24 h
Description: as §1, §2

Fusobacterium nucleatum = settings: 24 h
Description: as §1, §2, §3

Prevotella intermedia = settings: 24 h
Description: as §1, §2, §3

[2] = system: Staphylococcus aureus (MSSA); assay: microbe, parasite or virus in culture
Description: as §1, §2, §3

[3] = Peptide stability assay towards bacterial virulence factors (supernatants) using HPLC; type: in vitro ADME; settings: 24 hours
Description: FIG. 5: Stability of D-CTL and L-CTL towards the virulence factors of different bacterial strains. […] Chromatograms 1 correspond to supernantant only, chromatograms 2 correspond to supernatant and peptide and chromatograms 3 corresponds to peptide only.
Bacteria were then centrifuged for lmin at 13000rpm and the supernatant filtered using a 0,2 μm Millex filter (Merck-Millipore) to remove any residual bacteria.

Enterococcus faecalis = type: cell-based; settings: for bacterial growth inhibition of E. faecalis: peptides at 200 μg/mL
Description: Enterococcus faecalis (CCM 2541) was obtained from the Czechoslovac Collection of Microorganisms (Czech Republic) Bacteria were cultured in Anaerobe Basal Broth (Oxoid, France) at 37° C. in anaerobic conditions. Candida albicans (ATCC© 10231™) was cultured in Sabouraud medium (BD, France) supplemented with tetracycline (10 μg/mL) and cefotaxime (10 μg/mL).
An overnight culture of each pathogen was diluted (OD600 nm=0.001) and incubated at 37° C. in 96-plates in the presence of different concentrations of antimicrobial agents. When testing Ca(OH)2, the pH of the solution was measured with by pH meter. (CyberScan pH 510©, Eutech, France). After 24 h incubation, the OD620 nm was evaluated with a spectrophotometer (Multikan EX, ThermoScientific, France). Each assay was done at least in triplicate. For each set of assay, the standard deviation was determined.

[4] = Ca(OH)2 0,85 g/L pH 8,5, ½ MIC of D-CTL, HPLC
Description: The samples were then analyzed by HPLC. Chromatogram 1 corresponds to D-CTL, chromatogram 2 corresponds to D-CTL diluted in a saturated solution of Ca(OH)2 (pH 9). Absorbance is expressed in Unity of Milli-Absorbance (UmA) depending on the time in minutes (min).
Regarding the stability of D-CTL in Ca(OH)2, the peptide was incubated in a buffered Ca(OH)2 solution at 37° C. for 24 h. The pH of the Ca(OH)2 solution was buffered at the same pH than the one determined during the broth dilution assays. As negative controls, D-CTL in water was also incubated at 37° C. for 24 h.
(§4) The samples were analyzed by HPLC (Dionex, Ultimate 3000, CA USA) using a Nucleosil reverse-phase 300-5C18-colum (4,6×250 mm; particle size: 5 μm; porosity, 300 Å) (Macherey Nagel, France). Two solvents used were: 0.1% (v/v) TFA in water (Solvent A) and 0.09% (v/v) TFA in 70% (v/v) acetonitrile-water (solvent B). Absorbance was measured at 214 nm (A214 nm). The flow rate for elution was 0,7 mL/min with a gradient of solvent B as indicated on the chromatograms.

[5] = 300 μg/mL, 37° C., 24 h, HPLC
Description: as §4

[6] = 19 μg peptide in 100 μL supernatant, 37° C., 24 h, HPLC
Excerpt: Absence of growth was interpreted as lack of viable microorganism.
Absorbance was monitored at 214 nm and the solvent system consisted of 0.1% (v/v) TFA in water (solvent A) and 0.09% (v/v) TFA in 70% (v/v) acetonitrile-water (solvent B).

[7] = saliva from ten healthy volunteers, 24 hours
Description: Saliva from ten healthy volunteers was incubated with D-CTL or L-CTL for 24 hours and peptide stability was then assessed by LC-SRM. The analyses were performed on an Agilent 1100 Series HPLC system hyphenated to a QQQ-6490 triple quadrupole (Agilent Technologies). A total of 48 transitions (6 precursors) were monitored in an unscheduled mode within a total cycle time of 3 000 ms.
All samples were centrifuged at 14 000 g during 5 min at +4° C. and then diluted 3 times in water with 0.1% (v/v) HCOOH. For each sample, 2 μL were injected on the LC-SRM system. All separations were carried out on Agilent 1100 Series HPLC system (Agilent Technologies). For each analysis, the sample was loaded into a trapping column ZORBAX 300SB-C18 MicroBore Guard 5 gm, 1.0×17 mm (Agilent Technologies) at 50 μL/min with aqueous solution containing 0.1% (v/v) HCOOH and 2% CH3CN. After 3 min trapping, the column was put on-line with a ZORBAX 300SB-C18 3.5 μm, 0.3×150 mm column (Agilent Technologies). […]
For LC-SRM assay, each peptide was targeted with either an oxidized or non-oxidized state [[sequence]]. […] For each of the 6 precursors, 8 transitions were monitored (48 transitions in total) on a QQQ-6490 triple quadrupole mass spectrometer (Agilent technologies) in unscheduled mode and within a cycle time of 3 000 s. […] The reference value was calculated using the equation given by the supplier. […]

[8] = system: Staphylococcus aureus (MRSA); assay: microbe, parasite or virus in culture; settings: 24 h
Description: as §1, §2, §3

Candida albicans = assay: microbe, parasite or virus in culture; type: cell-based
Description: Candida albicans (ATCC© 10231™ distributed by LGC Standards, Molsheim, France) was cultured in Sabouraud medium (Sigma-Aldrich) supplemented with tetracycline (10 μg/mL) and cefotaxime (10 μg/mL) at 37° C. for 24 h. Candida albicans (OD600 nm=0,001) were plated in 96-well plates and treated either with different concentrations of the peptides of interest, and/or with different concentrations of voriconazole (VCZ) (Sigma-Aldrich). As a positive control, cells were treated with 10 μg/mL VCZ. After 24 h incubation, yeast growth was assessed by optical density OD600 nm using a spectrophotometer (Multiscan EX, Shanghai, China).
The MFC is defined as the lowest concentration of peptide able to inhibit 100% of yeasts, and determined using a modified Gompertz model as described in Lambert et Pearson (Lambert and Pearson 2000, J Appl Microbiol, 88(5): 784-790).
The efficiency of the combination D-CTL/VCZ was determined by the calculation of the Fractional inhibitory concentration (FIC) index according to the following formula: FICI=FICD-CTL+FICVCZ. According to EUCAST (European Committee on Antimicrobial Suscpetibility Testing), the effect of the combination is synergistic if FICI≤0,5, additive if 0,5<FICI≤1, indifferent if 1<FICI<2, antagonistic if FICI≥2^40-41. • Results D-CTL Inhibits the Groth of C. albicans

Molecule `CC1(C)S[C@@H]2[C@H](NC(=O)[C@H](N)c3ccc(O)cc3)C(=O)N2[C@H]1C(=O)O` [Amoxicillin] has an MIC (Parvimonas micra; 24 h) of 0.45 µg/mL.
With `CC1(C)S[C@@H]2[C@H](NC(=O)[C@H](N)c3ccccc3)C(=O)N2[C@H]1C(=O)O` [Ampicillin] the “change in MIC over the culture” value (E. coli (ATCC 25922)) was 3 times the MIC.
In the case of `CO/N=C(\C(=O)N[C@@H]1C(=O)N2C(C(=O)O)=C(COC(C)=O)CS[C@H]12)c1csc(N)n1` [Cefotaxim], the MIC [1] is reported as 0.09 µg/mL and the “change in MIC over the culture” value (E. coli (ATCC 25922)) is reported as 3 times the MIC.
In the case of `CSCC[C@@H](NC(=O)[C@@H](CO)NC(=O)[C@H](N)CCCNC(=N)N)C(=O)N[C@H](CCCNC(=N)N)C(=O)N[C@H](CC(C)C)C(=O)N[C@H](CO)C(=O)N[C@H](Cc1ccccc1)C(=O)N[C@H](CCCNC(=N)N)C(=O)N[C@H](C)C(=O)N[C@H](CCCNC(=N)N)C(=O)NCC(=O)N[C@H](Cc1ccc(O)cc1)C(=O)NCC(=O)N[C@H](Cc1ccccc1)C(=O)N[C@H](CCCNC(=N)N)C(=O)O` [D-CTL] (H-[dR][dS][dM][dR][dL][dS][dF][dR][dA][dR]G[dY]G[dF][dR]-OH; N-terminus and C-terminus assumed), the MIC (Escherichia coli) is reported as 8 µg/mL (≈ 4.3 µM), the MIC [1] is reported as 8.4 µg/mL and the MIC (Fusobacterium nucleatum) is reported as 22.4 µg/mL. It also gave an MIC (Prevotella intermedia) of 10 µg/mL, an MIC (Parvimonas micra; 24 hours incubation) of 23 µg/mL and an MIC ([2]; Staphylococcus aureus (MSSA), 24 hours incubation) of 24 µg/mL. For the same molecule, the “degradation in bacterial supernatants” value ([3]; all bacterial supernatants tested, 37° C.) was “not degraded”, the “MIC on E. faecalis” value (Enterococcus faecalis) was 156 µg/mL (≈ 83.9 µM) and the “stability in a buffered solution of Ca(OH)2” value [4] was “stable”. For the same molecule, the “degradation in the supernatant of E. faecalis” value [5] was “not degraded”, the “stability in the supernatant of Candida albicans” value [6] was “remains stable” and the stability in saliva [7] was “stable”.
In the case of `NC[C@H]1O[C@H](O[C@H]2[C@H](O)[C@@H](O[C@H]3O[C@H](CO)[C@@H](O)[C@H](N)[C@H]3O)[C@H](N)C[C@@H]2N)[C@H](O)[C@@H](O)[C@@H]1O` [Kanamycin], the MIC (Escherichia coli; Escherichia coli) is reported as 21.6 µg/mL (≈ 44.6 µM).
`CSCC[C@H](NC(=O)[C@H](CO)NC(=O)[C@@H](N)CCCNC(=N)N)C(=O)N[C@@H](CCCNC(=N)N)C(=O)N[C@@H](CC(C)C)C(=O)N[C@@H](CO)C(=O)N[C@@H](Cc1ccccc1)C(=O)N[C@@H](CCCNC(=N)N)C(=O)N[C@@H](C)C(=O)N[C@@H](CCCNC(=N)N)C(=O)NCC(=O)N[C@@H](Cc1ccc(O)cc1)C(=O)NCC(=O)N[C@@H](Cc1ccccc1)C(=O)N[C@@H](CCCNC(=N)N)C(=O)O` [L-CTL] (H-RSMRLSFRARGYGFR-OH; N-terminus and C-terminus assumed) showed an MIC (Escherichia coli) of 75 µg/mL (≈ 40.3 µM), an MIC [1] of 150 µg/mL and an MIC (Fusobacterium nucleatum) of 125.3 µg/mL. The MIC (Prevotella intermedia) was 148.6 µg/mL, the MIC (Parvimonas micra; 24 hours incubation) was 120 µg/mL and the MIC [8] was 37 µg/mL. For the same molecule, the MIC ([2]; 24 h) was 40 µg/mL, the “degradation by virulence factors” value ([3]; supernatant of E. coli multiresistant strain) was “degraded” and the “degradation by virulence factors” value ([3]; supernatant of E. coli wild type strain) was “degraded”. For the same molecule, the “stability in the supernatant of Candida albicans” value [6] was “degraded” and the stability in saliva [7] was “unlike L-CTL, D-CTL was stable”.
`COc1cccc(OC)c1C(=O)N[C@@H]1C(=O)N2[C@@H]1SC(C)(C)[C@@H]2C(=O)O` [Methicillin] gave an MIC ([2]; Staphylococcus aureus, MSSA, 24 h) of 1.2 µg/mL.
Work on `C[C@@H](c1ncncc1F)[C@](O)(Cn1cncn1)c1ccc(F)cc1F` [VCZ, voriconazole] yielded an MFC (Candida albicans; Candida albicans, 24 h, modified Gompertz model, read-out: minimal fungicidal concentration (MFC)) of 0.07 µg/mL and an FIC (Candida albicans; combination D-CTL/VCZ on Candida albicans) of 0.25.
Work on `CN[C@H](CC(C)C)C(=O)N[C@H]1C(=O)N[C@@H](CC(N)=O)C(=O)N[C@H]2C(=O)N[C@H]3C(=O)N[C@H](C(=O)N[C@H](C(=O)O)c4cc(O)cc(O)c4-c4cc3ccc4O)[C@H](O)c3ccc(c(Cl)c3)Oc3cc2cc(c3O[C@@H]2O[C@H](CO)[C@@H](O)[C@H](O)[C@H]2O[C@H]2C[C@](C)(N)[C@H](O)[C@H](C)O2)Oc2ccc(cc2Cl)[C@H]1O` [Vancomycin] yielded an MIC ([8]; Staphylococcus aureus, MRSA) of 0.8 µg/mL.
For “RILSILRHQNLLKELQDLAL [CHR, bovine chromofungin bCgA47-70]”, the “bacterial growth inhibition of E. faecalis” value (Enterococcus faecalis) was “no antimicrobial activity”.
For RSMRLSFRARGYGFRGPGLQL [CAT], the “bacterial growth inhibition of E. faecalis” value (Enterococcus faecalis) was “no antimicrobial activity”.
